Drawing on patent US12365692B2, “6-hydroxy-8-oxatricyclo[3.2.1.02,4]octane-2-carboxamide derivatives for inducing chondrogenesis for treating joint damage” (NOVARTIS AG, priority 2018, dated 2025), this text covers IC50 and Emax for 8 compounds.

The assay relates to ALP in NHAC (normal human articular chondrocytes). Nature of the assay: Alkaline Phosphatase (ALP) activity assay: ALP staining and quantitation in NHACs (prevention of chondrocyte hypertrophy). Type of assay: cell-based. The conditions noted are these: Chondrocyte, 288 h, human IL-1 beta 10 ng/mL, 12 days; for IC50: Fast Blue RR staining, high content imaging; for Emax: read-out: ALP in NHAC (% Efficacy). In a few lines:
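NHACs were plated with test compound in DMEM containing 10% FBS, and human IL-1 beta was added 5 h later at 10 ng/mL final. Cultures were kept 12 days at 37° C, 5% CO2. Cells were then fixed, ALP-stained with Fast Blue RR/Naphthol AS-MX, and hypertrophic cells were imaged and quantified by high-content imaging.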

As usually defined, the IC50 is the concentration that gives 50% inhibition. Low readings indicate higher potency, high ones lower potency.

`Cn1cc([C@@]23C[C@]2(C(=O)Nc2cccc(C(F)(F)F)c2)[C@H]2C[C@H](O)[C@@H]3O2)c(C(F)(F)F)n1` (racemic) [Example 49, rac-(1R,2R,4S,5R,6S)-6-hydroxy-4-(1-methyl-3-(trifluoromethyl)-1H-pyrazol-4-yl)-N-(3-(trifluoromethyl)phenyl)-8-oxatricyclo[3.2.1.02,4]octane-2-carboxamide]: the half-maximal inhibitory concentration (IC50) is over 30 µM and the Emax turned out to be 35%.
For `Cc1c(NC(=O)[C@]23C[C@@]2(c2cn(C)nc2C(F)(F)F)[C@H]2O[C@@H]3C[C@@H]2O)cccc1C(F)(F)F` (racemic) [Example 50, rac-(1R,2R,4S,5R,6S)-6-hydroxy-4-(1-methyl-3-(trifluoromethyl)-1H-pyrazol-4-yl)-N-(2-methyl-3-(trifluoromethyl)phenyl)-8-oxatricyclo[3.2.1.02,4]octane-2-carboxamide] the same measures were over 30 µM and 33%.
With `Cc1ccc(NC(=O)[C@]23C[C@@]2(c2cn(C)nc2C(F)(F)F)[C@H]2O[C@@H]3C[C@@H]2O)cc1C(F)(F)F` (racemic) [Example 51, rac-(1R,2R,4S,5R,6S)-6-hydroxy-4-(1-methyl-3-(trifluoromethyl)-1H-pyrazol-4-yl)-N-(4-methyl-3-(trifluoromethyl)phenyl)-8-oxatricyclo[3.2.1.02,4]octane-2-carboxamide], the 50% inhibitory concentration (IC50) is over 30 µM and the Emax came out at 45%.
In the same order, the values of `Cc1cc(NC(=O)[C@]23C[C@@]2(c2cn(C)nc2C(F)(F)F)[C@H]2O[C@@H]3C[C@@H]2O)cc(C(F)(F)F)c1` (racemic) [Example 52, rac-(1R,2R,4S,5R,6S)-6-hydroxy-4-(1-methyl-3-(trifluoromethyl)-1H-pyrazol-4-yl)-N-(3-methyl-5-(trifluoromethyl)phenyl)-8-oxatricyclo[3.2.1.02,4]octane-2-carboxamide] are 21 µM and 70%.
`Cc1ccc(C(F)(F)F)cc1NC(=O)[C@]12C[C@@]1(c1cn(C)nc1C(F)(F)F)[C@H]1O[C@@H]2C[C@@H]1O` (racemic) [Example 53, rac-(1R,2R,4S,5R,6S)-6-hydroxy-4-(1-methyl-3-(trifluoromethyl)-1H-pyrazol-4-yl)-N-(2-methyl-5-(trifluoromethyl)phenyl)-8-oxatricyclo[3.2.1.02,4]octane-2-carboxamide]: the half-inhibitory concentration (IC50) was over 30 µM and the Emax was determined as 23%.
Turning to `Cn1cc([C@@]23C[C@]2(C(=O)Nc2cccc(C(F)(F)F)c2F)[C@H]2C[C@H](O)[C@@H]3O2)c(C(F)(F)F)n1` (racemic) [Example 54, rac-(1R,2R,4S,5R,6S)—N-(2-fluoro-3-(trifluoromethyl)phenyl)-6-hydroxy-4-(1-methyl-3-(trifluoromethyl)-1H-pyrazol-4-yl)-8-oxatricyclo[3.2.1.02,4]octane-2-carboxamide], the IC50 is over 30 µM and the Emax was determined as 7%.
For `Cn1cc([C@@]23C[C@]2(C(=O)Nc2ccc(F)c(C(F)(F)F)c2)[C@H]2C[C@H](O)[C@@H]3O2)c(C(F)(F)F)n1` (racemic) [Example 55, rac-(1R,2R,4S,5R,6S)-N-(4-fluoro-3-(trifluoromethyl)phenyl)-6-hydroxy-4-(1-methyl-3-(trifluoromethyl)-1H-pyrazol-4-yl)-8-oxatricyclo[3.2.1.02,4]octane-2-carboxamide] the same measures were over 30 µM and 14%.
For `Cn1cc([C@@]23C[C@]2(C(=O)Nc2cc(F)cc(C(F)(F)F)c2)[C@H]2C[C@H](O)[C@@H]3O2)c(C(F)(F)F)n1` (racemic) [Example 56, rac-(1R,2R,4S,5R,6S)—N-(3-fluoro-5-(trifluoromethyl)phenyl)-6-hydroxy-4-(1-methyl-3-(trifluoromethyl)-1H-pyrazol-4-yl)-8-oxatricyclo[3.2.1.02,4]octane-2-carboxamide] the same measures were over 30 µM and 30%.
